# Experimental data as given in PubChem BioAssay AID1918995 (Molecular Pharmacology Branch, DTP, NCI, 2023).
# Tested on: 324938-238-R-J1-PDC complex spheroid growth, % test/control
# Assay: Anticancer human tumor 324938-238-R-J1-PDC patient-derived bladder carcinoma cell line growth inhibition [AhR]
# Details: for IC50: curve of first compound; for viability, T/C: stronger effect = lower value
# In short: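 Agents were dosed in half-log steps down from roughly clinical Cmax, or from 10 microM where Cmax was unknown, alone and with AhR antagonists. Read-out: percent test/control growth of tumor spheroids containing HUVEC and MSC stromal cells.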
# [1] = second compound 0.1 µM, first compound 0.0316 µM
# [2] = second compound 0.1 µM, first compound 0.1 µM
# [3] = second compound 0.1 µM, first compound 0.316 µM
# [4] = second compound 0.1 µM, first compound 1 µM
# [5] = second compound 0.1 µM, first compound 3.16 µM
# [6] = second compound 0.1 µM, first compound 10 µM
# [7] = second compound 0.316 µM, first compound 0.0316 µM
# [8] = second compound 0.316 µM, first compound 0.1 µM
# [9] = second compound 0.316 µM, first compound 0.316 µM
# [10] = second compound 0.316 µM, first compound 1 µM
# [11] = second compound 0.316 µM, first compound 3.16 µM
# [12] = second compound 0.316 µM, first compound 10 µM
# [13] = second compound 1 µM, first compound 0.0316 µM
# [14] = second compound 1 µM, first compound 0.1 µM
# [15] = second compound 1 µM, first compound 0.316 µM
# [16] = second compound 1 µM, first compound 1 µM
# [17] = second compound 1 µM, first compound 3.16 µM
# [18] = second compound 1 µM, first compound 10 µM
# [19] = second compound 3.16 µM, first compound 0.0316 µM
# [20] = second compound 3.16 µM, first compound 0.1 µM
# [21] = second compound 3.16 µM, first compound 0.316 µM
# [22] = second compound 3.16 µM, first compound 1 µM
# [23] = second compound 3.16 µM, first compound 3.16 µM
# [24] = second compound 3.16 µM, first compound 10 µM
# [25] = second compound 10 µM, first compound 0.0316 µM
# [26] = second compound 10 µM, first compound 0.1 µM
# [27] = second compound 10 µM, first compound 0.316 µM
# [28] = second compound 10 µM, first compound 1 µM
# [29] = second compound 10 µM, first compound 3.16 µM
# [30] = second compound 10 µM, first compound 10 µM
# 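Further: spheroids exposed to agents for seven days before viability read.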
IC50 (second compound 0.1 µM),IC50 (second compound 0.316 µM),IC50 (second compound 1 µM),IC50 (second compound 3.16 µM),IC50 (second compound 10 µM),Compound,"viability, T/C [1]","viability, T/C [2]","viability, T/C [3]","viability, T/C [4]","viability, T/C [5]","viability, T/C [6]","viability, T/C [7]","viability, T/C [8]","viability, T/C [9]","viability, T/C [10]","viability, T/C [11]","viability, T/C [12]","viability, T/C [13]","viability, T/C [14]","viability, T/C [15]",further results
> 10 µM,> 10 µM,> 10 µM,> 10 µM,> 10 µM,O=C(c1cc(Cc2n[nH]c(=O)c3ccccc23)ccc1F)N1CCN(C(=O)C2CC2)CC1 + Cc1ccccc1N=Nc1ccc(NC(=O)c2ccnn2C)c(C)c1,98%,105%,101%,103%,87.6%,75.5%,99.4%,99.8%,91.7%,92.1%,89.8%,68.5%,94.4%,100%,95.5%,"viability, T/C [16]: 90.6%; viability, T/C [17]: 78.7%; viability, T/C [18]: 72.3%; viability, T/C [19]: 84.5%; viability, T/C [20]: 79%; viability, T/C [21]: 87.3%; viability, T/C [22]: 84.5%; viability, T/C [23]: 74.4%; viability, T/C [24]: 65.2%; viability, T/C [25]: 84.6%; viability, T/C [26]: 83.4%; viability, T/C [27]: 81.2%; viability, T/C [28]: 85.1%; viability, T/C [29]: 72.4%; viability, T/C [30]: 65.9%"
0.391 µM,0.303 µM,0.309 µM,0.249 µM,0.287 µM,COc1cc(C2c3cc4c(cc3C(OC3OC5COC(C)OC5C(O)C3O)C3COC(=O)C23)OCO4)cc(OC)c1O (stereo not given) + Cc1ccccc1N=Nc1ccc(NC(=O)c2ccnn2C)c(C)c1,89.2%,79.3%,52.3%,33.4%,28%,19.5%,78.4%,87.8%,48.7%,33%,27%,16.9%,79.2%,75.5%,47.2%,"viability, T/C [16]: 29.6%; viability, T/C [17]: 23.7%; viability, T/C [18]: 16.4%; viability, T/C [19]: 68.2%; viability, T/C [20]: 61.6%; viability, T/C [21]: 46.4%; viability, T/C [22]: 33.3%; viability, T/C [23]: 28%; viability, T/C [24]: 16%; viability, T/C [25]: 70.5%; viability, T/C [26]: 65.5%; viability, T/C [27]: 43.3%; viability, T/C [28]: 38.7%; viability, T/C [29]: 31.8%; viability, T/C [30]: 18.5%"
9.56 µM,> 10 µM,> 10 µM,6.86 µM,5.14 µM,O=C(c1cc(Cc2n[nH]c(=O)c3ccccc23)ccc1F)N1CCN(C(=O)C2CC2)CC1 + CC(CO)NC(=O)c1cc(-c2ccc(Cl)cc2)nn(-c2cnn(C)c2)c1=O,97.6%,104%,85.3%,75.6%,66.9%,48.6%,83.3%,81%,79.2%,69.8%,65.3%,52%,82%,77.1%,75.1%,"viability, T/C [16]: 70.6%; viability, T/C [17]: 65.7%; viability, T/C [18]: 54%; viability, T/C [19]: 65.8%; viability, T/C [20]: 69.8%; viability, T/C [21]: 73.7%; viability, T/C [22]: 57.8%; viability, T/C [23]: 53.9%; viability, T/C [24]: 48.4%; viability, T/C [25]: 58.8%; viability, T/C [26]: 63.8%; viability, T/C [27]: 55.5%; viability, T/C [28]: 50.5%; viability, T/C [29]: 54.1%; viability, T/C [30]: 47.5%"
